Results reported in US20130236416A1, “SURFACE MODIFIED COLLOIDAL PARTICLES” (CLEMSON UNIVERSITY, priority 2012, published 2013).
Values joined by “and” are separate entries in the source; they are usually repeats but may differ in a detail not shown here. Identical values can stand only once. Like-named read-outs stand apart in the source and are kept apart here.

Experiments:
[1] = cited from earlier work
[2] = Relative fluorescence quantum yield versus reference dye HITCI in methanol; type: physicochemical
Protocol: Absorption spectra were taken using a Perkin-Elmer Lambda 900 UV/VIS/NIR spectrophotometer. Photoluminescence (PL) spectra were collected using a Thermo Oriel xenon arc lamp (Thermo Oriel 66 902) mated with a Thermo Oriel Cornerstone 7 400 1/8m monochromator (Thermo Oriel 7400) and a Horiba Jobin-Yvon MicroHR spectrometer coupled to a Synapse CCD detector. Quantum yields (φ) of the dyes and modified particles were determined relative to the reference dye 1,10,3,3,30,30-hexamethylindotricarbocyanine iodide (HITCI) in methanol, which has a fluorescence quantum yield of φref=0.12, [51,20] employing established procedures.

[3] = molecular target: T1, CARDO complex (Metapseudomonas resinovorans, UniProt Q8G8B6); test: Temperature dependence of 9H-carbazole conversion by purified CARDO complex; type: biochemical, Pseudomonas resinovorans CA10; conditions: 5° C.
T1 construct: (HIS)6 (C); made in house; host or cells: Escherichia coli BL21(DE3) Rosetta
Protocol: Purified CARDO complex activity was monitored using a modified enzymatic assay previously described [H. Nojiri, et al. Structure of the terminal oxygenase component of angular dioxygenase, carbazole 1,9a-dioxygenase. Journal of Molecular Biology, 351(2):355-370, 2005.]. The purified enzymes CARDO-F, CARDO-O and CARDO-R were incubated in 20 μL Buffer D (25 mM Tris-HCl pH 7.5 and 1 mM NADH) containing 1 mM carbazole dissolved in DMSO at varying temperatures from 30° C. to 5° C. An aliquot was removed from the reaction at the indicated times and the absorbance of the reaction was determined with a NanoDrop spectrophotometer (Thermo Scientific) at 295 nm.

[4] = system: P. resinovorans CA10; test: Proliferation of P. resinovorans CA10 on carbazole-based media; type: cell-based, Pseudomonas resinovorans CA10; conditions: 96 hour incubation
Protocol: Control growth performed with glucose medium (Δ).
The bioavailability of the hydrophobic metabolites is also critical to understanding metabolic enzymes that bind to them[40]. […] FIG. 3 presents the proliferation of P. resinovorans CA10 with both 9H-carbazole and PA/AC particle based media during a 96 hour incubation.

T1 sequence (Q8G8B6 whole entry, one chain of several): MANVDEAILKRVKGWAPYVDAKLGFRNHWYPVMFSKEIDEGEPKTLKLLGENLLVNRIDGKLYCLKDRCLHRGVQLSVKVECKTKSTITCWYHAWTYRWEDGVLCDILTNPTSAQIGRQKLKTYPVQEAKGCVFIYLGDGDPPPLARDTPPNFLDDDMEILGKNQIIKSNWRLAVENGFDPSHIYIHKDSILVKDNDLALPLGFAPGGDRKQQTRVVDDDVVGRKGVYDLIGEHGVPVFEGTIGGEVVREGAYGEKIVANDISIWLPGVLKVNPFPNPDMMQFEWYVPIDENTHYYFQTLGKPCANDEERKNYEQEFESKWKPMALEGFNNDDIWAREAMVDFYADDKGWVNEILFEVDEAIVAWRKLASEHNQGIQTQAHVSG

In the case of `CC1(C)C(/C=C/C=C/C=C/C=C2\N(CCCCS(=O)(=O)O)c3ccc4ccccc4c3C2(C)C)=[N+](CCCCS(=O)(=O)[O-])c2ccc3ccccc3c21` [ICG, Indocyanine green], the “yield of triplet formation through S1-T1 intersystem-crossing” value ([1]; free ICG in an aqueous albumin solution) is listed as 11%, the “yield of triplet formation through S1-T1 intersystem-crossing” value ([1]; free ICG in water) is listed as 14% and the “fluorescence quantum yield of free ICG in water” value ([1]; water, ICG concentration ca. 2.7×10^−3 mol·dm^−3) is listed as “ca. 4×10^−5”. The “relative fluorescence quantum yield φ” value [2] was 0.036±0.002.
For `c1ccc2c(c1)[nH]c1ccccc12` [9H-carbazole], the “conversion of carbazole by purified CARDO complex” value [3] was “significantly retarded” and the “growth of P. resinovorans CA10 on the substrate-based medium” value [4] was “consistent growth”.
With `CC1(C)C(/C=C/C=C/C=C/C=C2/N(CCCN=[N+]=[N-])c3ccc4ccccc4c3C2(C)C)=[N+](CCCCS(=O)(=O)[O-])c2ccc3ccccc3c21` [azICG, 4-(2-(1E,3E,5E,7E)-7-[3-(3-Azidopropyl)-1,1-Dimethyl-1,3-Dihydro-2H-Benzo[e]Indol-2-Ylidene]-1,3,5-Heptatrienyl-1,1-Dimethyl-1H-Benzo[e]Indolium-3-yl)-1-Butanesulfonate] the “relative fluorescence quantum yield φ” value [2] was 0.044±0.004 and 0.044.
In the case of `CN1C(=CC=CC=CC=CC2=[N+](C)c3ccccc3C2(C)C)C(C)(C)c2ccccc21.[I-]` [HITCI, 1,10,3,3,30,30-hexamethylindotricarbocyanine iodide], the “fluorescence quantum yield φref” value ([1]; reference dye in methanol) is listed as 0.12.
